Test results from patent US11123398B2, “Chemotherapeutic combinations of cationic antimicrobial peptides and chemotherapeutics” (LYTIX BIOPHARMA AS, priority 2014, dated 2021).
Non-standard residues stand in square brackets, D forms with d. Residues, ends and D or L forms follow the SMILES beside them. Dip = N[C@H](C(=O)O)C(c1ccccc1)c1ccccc1

How the values were obtained:
A20 lymphoma = assay: LTX-315 with metronomic CY in A20 lymphoma model; assay type: in vivo, Balb/c mice; conditions: LTX-315 alone, 1 mg i.t. once a day for 3 days
Experimental: Tumor cells were harvested, washed in RPMI-1640 and injected intradermally (i.d.) into the right side of the abdomen in Balb/c mice (5×10^6 A20 cells per mouse/50 μl RPMI-1640). When animals obtained palpable tumors (20-30 mm^2) animals were injected i.p. with a single dose of CY (day 4) dissolved in saline (2.0 mg CY/500 μl saline). […] Tumor size was measured using an electronic caliper and expressed as the area of an ellipse [(maximum dimension/2)×(minimum dimension/2)×π]. Animals were then euthanized when the product of the perpendicular tumor dimensions reached 130 mm^2 or when tumor ulceration developed.

IGROV-1/CDDP = assay: MTS cytotoxicity assay, IGROV-1/CDDP; assay type: cell-based, human; conditions: IC50 resistant / IC50 sensitive line; cisplatin resistance
Experimental: (§1) Tumor cells were plated in 96-well flat-bottom microtitration plates (Nunc, Dutscher, Brumath, France) and incubated at 37° C. for 24 hours before treatment in 190 μl of drug-free culture medium supplemented or not with 10% FBS for adherent or suspension growing cell lines, respectively.
(§2) The adherent cell lines were washed once with 200 μl FBS-free culture medium before treatment. Tumor cells were incubated for 4 hours with 10 concentrations of compounds in ¼ dilution step with a top dose of 400 μM (range 4×10^−4 to 4×10^−10 M), with 1% (final concentration) Triton X-100 as positive control and FBS-free culture medium as negative control. The cells (190 μl) were incubated in a 200 μl final volume of FBS-free culture medium containing test substances at 37° C. under 5% CO2.
(§3) Three independent experiments were performed, each concentration being tested in quadruplicate. Control cells were treated with vehicle alone. At the end of treatments, the cytotoxic activity was evaluated by a MTS assay (see § 3.3.).
(§4) Like MTT, MTS is bioreduced by cells into a formazan product that is directly soluble in culture medium without processing, unlike MTT.
(§5) At the end of the cells treatment, 40 μl of a 0.22 μm filtered freshly combined solution of MTS (20 ml at 2 mg/ml, Ref G1111, Batch 235897, Exp March 2009, Promega, Charbonnières, France) and PMS (1 ml at 0.92 mg/ml, Ref P9625, Batch 065K0961, Sigma) in Dulbecco's Phosphate Buffered Saline (DPBS, Ref 17-513Q, Batch 6MB0152, Cambrex), were added in each well. Culture plates were incubated for 2 h at 37° C. Absorbency (OD) were measured at 490 nm in each well using VICTOR^3™ 1420 multilabeled counter (Wallac, PerkinElmer, Courtaboeuf, France).
(§6) IC50: drug concentration to obtain a 50% inhibition of cell proliferation.
(§7) The dose-response curves were plotted using XLFit 3 (IDBS, United Kingdom). The IC50 determination values were calculated using the XLFit 3 software from semi-log curves. Individual IC50 determination values as well as mean and SD values were generated.
(§8) Resistance index was calculated using the following formula: […]
(§9) Resistance index was calculated for each compound for each couple of sensitive and resistant cell lines. Individual resistance index was calculated when IC50 values of both sensitive and corresponding resistant cell lines were determined within same experiment. In addition, resistance index was also calculated ratio of mean IC50 values obtained during three independent experiments.

A375 cells [1] = assay: TEM electron microscopy, A375; assay type: cell-based, human
Experimental: A375 cells were seeded at 1×10^5 cells per well in 6-well plates and allowed to grow for three days to optimize membrane structures in the culture, and the media was changed on the second day. Cells were washed twice in serum-free RPMI before being treated with LTX-315 dissolved in serum-free RPMI at 5, 10 and 25 μg/ml, with serum-free RPMI as a negative control. Cells were then washed with PBS twice before fixation for 24 hours in 4° C. with 4% formaldehyde and 1% gluteralaldehyde in a Hepes buffer at pH 7.8. Dehydration and post-fixation protocols included incubation in a 5% buffered tannic acid and incubation in a 1% osmium-reduced ferrocyanide. Ultrathin sections were prepared, and uranyl acetate (5%) and Reynolds's lead citrate were used for staining and contrasting. Samples were examined on a JEOL JEM-1010 transmission electron microscope, and images were taken with an Olympus Morada side-mounted TEM CCD camera (Olympus soft imaging solutions, GmbH, Germany).

HL-60/ADR = assay: MTS cytotoxicity assay, HL-60/ADR; assay type: cell-based, human; conditions: IC50 resistant / IC50 sensitive line; doxorubicin resistance
Experimental: as §1, §2, §3, §4, §5, §6, §7, §8, §9

A375 cells [2] = assay: Release of HMGB1 (Western blot); assay type: cell-based, human; conditions: 35 μM, up to 60 min
Experimental: A375 cells were seeded with 3×10^5 cells/well in 6-well plates in a complete media, and allowed to adhere overnight. Cells were treated with LTX-315 or LTX-328 at 35 μM, and incubated at 37° C. and 5% CO2 for different time points (5, 10, 15, 30, 60 min), and negative controls were serum-free RPMI-1650. Supernatants (S) were collected and centrifuged at 1,400 g for five minutes, and cell lysates (L) were harvested after washing with PBS twice and then subsequently lysed using a 4× Sample buffer (Invitrogen, number), 0.1 M DTT (Sigma number) and water. Supernatants were concentrated using Amicon Ultra 50K centrifugal filters (Millipore UFC505024), and the cell lysate was sonicated. Both supernatants and lysate were boiled and resolved in a 10% sodium dodecyl sulfate polyacrylamide gel electrophoresis (SDS-PAGE), and then electro transferred to a polyvindiline difluoride (PVDF) membrane (Millipore). The membrane was blocked in 5% milk and incubated with the HMGB1 antibody (rabbit, polyclonal, abcam ab 18256); the membrane was then rinsed several times with TBST, incubated with a horseradish peroxidase (HRP)-conjugated secondary antibody (abcam ab6721), rinsed again with TBST and then developed using WB Luminol Reagent (Santa Cruz Biotechnology, Heidelberg, Germany).

In the case of `NCCCC[C@H](NC(=O)[C@@H](NC(=O)[C@H](Cc1c[nH]c2ccccc12)NC(=O)[C@H](CCCCN)NC(=O)[C@H](CCCCN)NC(=O)[C@H](Cc1c[nH]c2ccccc12)NC(=O)[C@H](Cc1c[nH]c2ccccc12)NC(=O)[C@H](CCCCN)NC(=O)[C@@H](N)CCCCN)C(c1ccccc1)c1ccccc1)C(N)=O` [LTX-315, K-K-W-W-K-K-W-Dip-K-NH2] (H-KKWWKKW[Dip]K-NH2), the “Animals with complete regression of palpable A20 tumors” value (A20 lymphoma) is reported as “one of the animals”, the “Animals with partial response” value (A20 lymphoma) is reported as “remainder of the animals” and the “Resistance index (RI), IGROV-1/CDDP” value (IGROV-1/CDDP) is reported as 0.50. The “Cells displaying vacuolization (TEM)” value (A375 cells [1]; 3.5 μM, 60 minutes) was “approximately 20%”, the “Number of necrotic cells (TEM)” value (A375 cells [1]; 3.5 μM, 60 minutes) was “less than 5%” and the “Cells displaying vacuolization (TEM)” value (A375 cells [1]; 17 μM, 60 min) was 4%. For the same molecule, the “Cells with necrotic morphology, loss of plasma membrane integrity (TEM)” value (A375 cells [1]; 17 μM, 60 min) was “approximately 40%”, the “Resistance index (RI), HL-60/ADR” value (HL-60/ADR) was 1.45 and the “HMGB1 translocation from cell lysate to supernatant” value (A375 cells [2]) was “gradual translocation from the cell lysate to the supernatant detected”.
